Test results published in PMC4508061, “Selectivity Profiling and Biological Activity of Novel β-Carbolines as Potent and Selective DYRK1 Kinase Inhibitors” (PLoS ONE, 2015).

Tests used:
Assay in all cases: ProQinase radiometric kinase panel
Details in all cases: mean of 2 exp.
VEGF-R3 = VEGF-R3 (Homo sapiens, UniProt P35916)
PKC-delta = PKC-delta (Homo sapiens, UniProt Q05655)
MAP4K4 = MAP4K4 (Homo sapiens, UniProt O95819)
GRK7 = GRK7 (Homo sapiens, UniProt Q8WTQ7)
p38-beta = p38-beta (Homo sapiens, UniProt Q15759)
CDK1/CycB1 = CDK1/CycB1 (Homo sapiens, UniProt P06493)
ASK1 = ASK1 (Homo sapiens, UniProt Q99683)
DAPK3 = DAPK3 (Homo sapiens, UniProt O43293)
PKC-gamma = PKC-gamma (Homo sapiens, UniProt P05129)
PAK7 = PAK7 (Homo sapiens, UniProt Q9P286)
AKT1 = AKT1 (Homo sapiens, UniProt P31749)
PRKG2 = PRKG2 (Homo sapiens, UniProt Q13237)
MKNK2 = MKNK2 (Homo sapiens, UniProt Q9HBH9)
EPHB2 = EPHB2 (Homo sapiens, UniProt P29323)
NEK1 = NEK1 (Homo sapiens, UniProt Q96PY6)
FLT3 = FLT3 (Homo sapiens, UniProt P36888)
NEK7 = NEK7 (Homo sapiens, UniProt Q8TDX7)
EPHB1 = EPHB1 (Homo sapiens, UniProt P54762)
IGF1-R = IGF1-R (Homo sapiens, UniProt P08069)
INS-R = INS-R (Homo sapiens, UniProt P06213)
EIF2AK2 = EIF2AK2 (Homo sapiens, UniProt P19525)
MARK3 = MARK3 (Homo sapiens, UniProt P27448)
RAF1 (Y340D/Y341D) = RAF1 (Y340D/Y341D) (Homo sapiens, UniProt P04049, Y340D/Y341D)
SGK3 = SGK3 (Homo sapiens, UniProt Q96BR1)
PLK1 = PLK1 (Homo sapiens, UniProt P53350)
NIK = NIK (Homo sapiens, UniProt Q99558)
ZAP70 = ZAP70 (Homo sapiens, UniProt P43403)
MST2 = MST2 (Homo sapiens, UniProt Q13188)
RON = RON (Homo sapiens, UniProt Q04912)
SRPK2 = SRPK2 (Homo sapiens, UniProt P78362)
HIPK2 = HIPK2 (Homo sapiens, UniProt Q9H2X6)
LRRK2 = LRRK2 (Homo sapiens, UniProt Q5S007)
MELK = MELK (Homo sapiens, UniProt Q14680)
ERK1 = ERK1 (Homo sapiens, UniProt P27361)
CDK4/CycD1 = CDK4/CycD1 (Homo sapiens, UniProt P11802)
DNA-PK = DNA-PK (Homo sapiens, UniProt P78527)
TYK2 = TYK2 (Homo sapiens, UniProt P29597)
ROS = ROS (Homo sapiens, UniProt P08922)
WEE1 = WEE1 (Homo sapiens, UniProt P30291)

EPHB1, sequence (P54762 18-984): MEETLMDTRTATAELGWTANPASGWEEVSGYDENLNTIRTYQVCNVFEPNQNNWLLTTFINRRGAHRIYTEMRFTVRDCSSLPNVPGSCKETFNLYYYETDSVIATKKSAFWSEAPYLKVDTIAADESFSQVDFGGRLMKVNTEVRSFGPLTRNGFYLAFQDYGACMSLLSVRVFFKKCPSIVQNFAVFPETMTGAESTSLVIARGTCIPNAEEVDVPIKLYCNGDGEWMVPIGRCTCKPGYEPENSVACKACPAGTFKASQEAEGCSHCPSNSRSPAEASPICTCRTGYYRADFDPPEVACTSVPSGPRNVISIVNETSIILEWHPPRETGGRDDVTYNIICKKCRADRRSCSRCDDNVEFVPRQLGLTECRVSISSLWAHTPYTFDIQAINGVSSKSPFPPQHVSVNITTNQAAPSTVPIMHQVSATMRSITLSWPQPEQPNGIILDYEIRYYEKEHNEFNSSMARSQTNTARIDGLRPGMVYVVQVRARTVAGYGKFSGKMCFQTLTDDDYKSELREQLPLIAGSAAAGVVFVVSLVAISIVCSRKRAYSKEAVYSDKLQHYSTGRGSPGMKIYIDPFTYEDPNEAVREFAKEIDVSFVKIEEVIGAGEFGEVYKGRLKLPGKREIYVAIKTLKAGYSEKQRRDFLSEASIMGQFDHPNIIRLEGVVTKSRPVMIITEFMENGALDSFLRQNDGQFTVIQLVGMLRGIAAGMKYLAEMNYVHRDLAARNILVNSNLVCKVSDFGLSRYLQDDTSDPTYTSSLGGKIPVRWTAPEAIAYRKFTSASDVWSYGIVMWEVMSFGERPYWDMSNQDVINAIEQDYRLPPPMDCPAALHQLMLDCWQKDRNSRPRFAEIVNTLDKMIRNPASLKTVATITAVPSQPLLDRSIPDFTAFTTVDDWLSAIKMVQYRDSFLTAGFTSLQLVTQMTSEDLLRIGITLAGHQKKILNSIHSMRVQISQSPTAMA
DAPK3, sequence (O43293 whole entry): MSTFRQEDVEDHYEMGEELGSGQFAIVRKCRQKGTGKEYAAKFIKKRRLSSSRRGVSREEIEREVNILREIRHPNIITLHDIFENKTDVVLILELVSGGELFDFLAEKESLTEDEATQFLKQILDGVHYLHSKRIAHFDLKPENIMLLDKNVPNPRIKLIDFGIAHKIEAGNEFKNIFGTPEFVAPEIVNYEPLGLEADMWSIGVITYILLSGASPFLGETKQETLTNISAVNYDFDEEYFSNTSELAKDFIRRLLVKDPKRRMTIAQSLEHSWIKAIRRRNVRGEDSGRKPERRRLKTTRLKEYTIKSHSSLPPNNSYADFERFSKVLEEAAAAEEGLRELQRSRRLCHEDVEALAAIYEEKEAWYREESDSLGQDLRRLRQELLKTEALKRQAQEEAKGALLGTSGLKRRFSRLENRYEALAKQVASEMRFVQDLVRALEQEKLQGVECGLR
HIPK2, sequence (Q9H2X6 whole entry): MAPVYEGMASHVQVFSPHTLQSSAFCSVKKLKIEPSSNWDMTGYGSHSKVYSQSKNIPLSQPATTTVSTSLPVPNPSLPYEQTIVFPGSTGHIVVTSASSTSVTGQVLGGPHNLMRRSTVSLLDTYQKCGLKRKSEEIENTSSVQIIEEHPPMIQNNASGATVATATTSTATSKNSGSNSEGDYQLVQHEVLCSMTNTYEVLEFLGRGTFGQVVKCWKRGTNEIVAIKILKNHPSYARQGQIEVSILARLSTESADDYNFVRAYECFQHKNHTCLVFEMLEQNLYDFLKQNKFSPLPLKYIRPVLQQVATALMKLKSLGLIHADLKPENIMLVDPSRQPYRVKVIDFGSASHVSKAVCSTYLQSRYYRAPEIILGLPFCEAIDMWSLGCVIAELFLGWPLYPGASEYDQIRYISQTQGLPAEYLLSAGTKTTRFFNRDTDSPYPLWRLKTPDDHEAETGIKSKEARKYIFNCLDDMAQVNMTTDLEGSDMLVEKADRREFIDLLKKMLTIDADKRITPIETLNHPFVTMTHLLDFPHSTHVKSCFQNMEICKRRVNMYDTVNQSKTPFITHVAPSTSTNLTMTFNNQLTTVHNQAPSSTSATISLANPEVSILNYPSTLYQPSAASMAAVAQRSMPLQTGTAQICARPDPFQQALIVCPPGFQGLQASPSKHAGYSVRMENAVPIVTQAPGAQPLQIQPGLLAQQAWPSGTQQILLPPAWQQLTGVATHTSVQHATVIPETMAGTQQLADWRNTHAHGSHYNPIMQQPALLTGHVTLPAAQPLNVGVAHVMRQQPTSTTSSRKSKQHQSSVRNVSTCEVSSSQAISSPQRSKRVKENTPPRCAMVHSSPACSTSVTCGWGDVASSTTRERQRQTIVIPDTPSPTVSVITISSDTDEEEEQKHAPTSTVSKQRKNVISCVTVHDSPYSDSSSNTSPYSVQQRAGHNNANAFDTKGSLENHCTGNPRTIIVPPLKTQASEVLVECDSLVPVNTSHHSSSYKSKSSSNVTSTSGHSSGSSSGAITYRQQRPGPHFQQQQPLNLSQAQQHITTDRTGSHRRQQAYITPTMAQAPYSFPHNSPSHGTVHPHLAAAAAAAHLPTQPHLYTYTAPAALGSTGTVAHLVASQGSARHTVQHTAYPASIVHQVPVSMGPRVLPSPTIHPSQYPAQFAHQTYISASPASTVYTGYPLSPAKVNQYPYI
EPHB2, sequence (P29323 19-1055): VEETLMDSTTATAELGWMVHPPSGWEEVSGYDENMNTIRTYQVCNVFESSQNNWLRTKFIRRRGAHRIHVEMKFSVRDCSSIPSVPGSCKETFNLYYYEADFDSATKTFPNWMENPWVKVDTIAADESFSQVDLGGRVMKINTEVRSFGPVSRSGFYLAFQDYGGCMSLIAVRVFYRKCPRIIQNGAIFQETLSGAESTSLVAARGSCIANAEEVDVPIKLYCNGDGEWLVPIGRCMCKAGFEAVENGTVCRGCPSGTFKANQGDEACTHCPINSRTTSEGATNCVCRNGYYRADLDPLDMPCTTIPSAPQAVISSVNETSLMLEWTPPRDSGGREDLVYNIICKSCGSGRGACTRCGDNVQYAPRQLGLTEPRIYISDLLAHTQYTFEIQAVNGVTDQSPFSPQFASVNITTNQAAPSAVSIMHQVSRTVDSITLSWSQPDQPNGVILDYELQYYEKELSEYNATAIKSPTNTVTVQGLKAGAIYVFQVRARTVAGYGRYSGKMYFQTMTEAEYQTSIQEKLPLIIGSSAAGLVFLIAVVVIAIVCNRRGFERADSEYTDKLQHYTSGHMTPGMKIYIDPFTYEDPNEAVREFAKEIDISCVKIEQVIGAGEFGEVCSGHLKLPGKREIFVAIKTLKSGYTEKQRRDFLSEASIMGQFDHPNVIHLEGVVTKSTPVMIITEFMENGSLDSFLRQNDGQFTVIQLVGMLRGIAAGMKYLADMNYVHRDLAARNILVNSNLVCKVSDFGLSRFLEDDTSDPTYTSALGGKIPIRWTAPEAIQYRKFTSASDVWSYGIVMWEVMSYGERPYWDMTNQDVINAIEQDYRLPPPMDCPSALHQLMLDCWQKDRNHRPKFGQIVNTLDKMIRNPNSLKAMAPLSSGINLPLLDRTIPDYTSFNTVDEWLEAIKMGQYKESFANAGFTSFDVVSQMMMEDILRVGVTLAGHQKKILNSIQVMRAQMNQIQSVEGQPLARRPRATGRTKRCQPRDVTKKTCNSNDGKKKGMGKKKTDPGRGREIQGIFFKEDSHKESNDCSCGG
EIF2AK2, sequence (P19525 whole entry): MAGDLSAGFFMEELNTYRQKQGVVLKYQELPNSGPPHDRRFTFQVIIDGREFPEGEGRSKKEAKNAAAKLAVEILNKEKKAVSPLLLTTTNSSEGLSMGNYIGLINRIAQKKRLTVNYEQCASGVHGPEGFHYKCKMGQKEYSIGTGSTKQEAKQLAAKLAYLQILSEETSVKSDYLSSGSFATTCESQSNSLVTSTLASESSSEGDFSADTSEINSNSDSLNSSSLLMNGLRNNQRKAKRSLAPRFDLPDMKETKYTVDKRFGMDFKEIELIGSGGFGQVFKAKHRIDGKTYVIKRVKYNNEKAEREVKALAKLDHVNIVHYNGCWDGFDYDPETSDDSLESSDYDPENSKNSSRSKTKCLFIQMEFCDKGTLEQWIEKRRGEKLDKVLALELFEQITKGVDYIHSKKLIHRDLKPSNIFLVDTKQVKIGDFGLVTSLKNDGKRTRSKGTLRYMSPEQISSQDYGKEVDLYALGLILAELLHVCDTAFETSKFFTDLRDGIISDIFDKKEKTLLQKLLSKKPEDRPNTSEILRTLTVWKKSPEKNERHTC
PKC-delta, sequence (Q05655 whole entry): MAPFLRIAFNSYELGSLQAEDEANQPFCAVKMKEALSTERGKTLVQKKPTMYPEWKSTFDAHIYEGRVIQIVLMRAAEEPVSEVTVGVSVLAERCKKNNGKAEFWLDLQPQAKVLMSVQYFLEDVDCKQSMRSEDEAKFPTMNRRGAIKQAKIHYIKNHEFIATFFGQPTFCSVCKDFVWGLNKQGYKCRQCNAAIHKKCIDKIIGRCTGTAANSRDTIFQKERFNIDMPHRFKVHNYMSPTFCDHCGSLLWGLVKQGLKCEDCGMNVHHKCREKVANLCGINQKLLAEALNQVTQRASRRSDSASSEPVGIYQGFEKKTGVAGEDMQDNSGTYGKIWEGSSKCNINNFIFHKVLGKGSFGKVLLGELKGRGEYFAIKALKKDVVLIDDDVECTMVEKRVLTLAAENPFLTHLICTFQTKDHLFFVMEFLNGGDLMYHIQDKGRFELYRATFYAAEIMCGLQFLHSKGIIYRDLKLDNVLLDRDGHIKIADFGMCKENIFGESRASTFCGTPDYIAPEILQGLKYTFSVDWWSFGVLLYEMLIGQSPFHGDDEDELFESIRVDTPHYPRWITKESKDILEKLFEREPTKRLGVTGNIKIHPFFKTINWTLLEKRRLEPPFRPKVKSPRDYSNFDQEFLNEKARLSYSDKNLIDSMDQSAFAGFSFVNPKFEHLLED

COc1ccc2c3ccnc(Cl)c3n(CC#N)c2c1 [AnnH75]
residual activity at 1 µM, Mean (VEGF-R3): 93 % of control
residual activity at 1 µM, Mean (PKC-delta): 105 % of control
residual activity at 1 µM, Mean (MAP4K4): 85 % of control
residual activity at 1 µM, Mean (GRK7): 103 % of control
residual activity at 1 µM, Mean (p38-beta): 105 % of control
residual activity at 1 µM, Mean (CDK1/CycB1): 81 % of control
residual activity at 1 µM, Mean (ASK1): 104 % of control
residual activity at 1 µM, Mean (DAPK3): 98 % of control
residual activity at 1 µM, Mean (PKC-gamma): 108 % of control
residual activity at 1 µM, Mean (PAK7): 90 % of control
residual activity at 1 µM, Mean (AKT1): 102 % of control
residual activity at 1 µM, Mean (PRKG2): 85 % of control
residual activity at 1 µM, Mean (MKNK2): 92 % of control
residual activity at 1 µM, Mean (EPHB2): 99 % of control
residual activity at 1 µM, Mean (NEK1): 101 % of control
residual activity at 1 µM, Mean (FLT3): 70 % of control
residual activity at 1 µM, Mean (NEK7): 93 % of control
residual activity at 1 µM, Mean (EPHB1): 89 % of control
residual activity at 1 µM, Mean (IGF1-R): 83 % of control
residual activity at 1 µM, Mean (INS-R): 92 % of control
residual activity at 1 µM, Mean (EIF2AK2): 95 % of control
residual activity at 1 µM, Mean (MARK3): 100 % of control
residual activity at 1 µM, Mean (RAF1 (Y340D/Y341D)): 99 % of control
residual activity at 1 µM, Mean (SGK3): 108 % of control
residual activity at 1 µM, Mean (PLK1): 93 % of control
residual activity at 1 µM, Mean (NIK): 87 % of control
residual activity at 1 µM, Mean (ZAP70): 97 % of control
residual activity at 1 µM, Mean (MST2): 101 % of control
residual activity at 1 µM, Mean (RON): 96 % of control
residual activity at 1 µM, Mean (SRPK2): 106 % of control
residual activity at 1 µM, Mean (HIPK2): 87 % of control
residual activity at 1 µM, Mean (LRRK2): 83 % of control
residual activity at 1 µM, Mean (MELK): 87 % of control
residual activity at 1 µM, Mean (ERK1): 87 % of control
residual activity at 1 µM, Mean (CDK4/CycD1): 100 % of control
residual activity at 1 µM, Mean (DNA-PK): 63 % of control
residual activity at 1 µM, Mean (TYK2): 96 % of control
residual activity at 1 µM, Mean (ROS): 94 % of control
residual activity at 1 µM, Mean (WEE1): 100 % of control
